# Like-named read-outs stand apart in the source and are kept apart here.
# Experiments:
# Assay type in all cases: cell-based
# [1] = tested on: VCaP cells; assay: Cellular potency (IC50) in VCaP cells
# Description: (§1) Biological Assays. LNCaP and VCaP cells used were purchased from American Type Culture Collection (ATCC). LNCaP were grown in RPMI 1640 (Invitrogen) and VCaP cells were grown in DMEM with Glutamax (Invitrogen). All of the cells were supplemented with 10% fetal bovine serum (Invitrogen) at 37° C. in a humidified 5% CO2 incubator.
# [2] = tested on: LNCaP cells; assay: Cellular potency (IC50) in LNCaP cells
# Description: as §1
# [3] = target: T1, AR (Homo sapiens, UniProt P10275); assay: Degradation of AR in VCaP cells; details: VCaP cells; for Dmax: VCaP
# T1 construct: Degradation of AR; Cellular potency; host or cells: VCaP cells
# T1 sequence (P10275 1-920): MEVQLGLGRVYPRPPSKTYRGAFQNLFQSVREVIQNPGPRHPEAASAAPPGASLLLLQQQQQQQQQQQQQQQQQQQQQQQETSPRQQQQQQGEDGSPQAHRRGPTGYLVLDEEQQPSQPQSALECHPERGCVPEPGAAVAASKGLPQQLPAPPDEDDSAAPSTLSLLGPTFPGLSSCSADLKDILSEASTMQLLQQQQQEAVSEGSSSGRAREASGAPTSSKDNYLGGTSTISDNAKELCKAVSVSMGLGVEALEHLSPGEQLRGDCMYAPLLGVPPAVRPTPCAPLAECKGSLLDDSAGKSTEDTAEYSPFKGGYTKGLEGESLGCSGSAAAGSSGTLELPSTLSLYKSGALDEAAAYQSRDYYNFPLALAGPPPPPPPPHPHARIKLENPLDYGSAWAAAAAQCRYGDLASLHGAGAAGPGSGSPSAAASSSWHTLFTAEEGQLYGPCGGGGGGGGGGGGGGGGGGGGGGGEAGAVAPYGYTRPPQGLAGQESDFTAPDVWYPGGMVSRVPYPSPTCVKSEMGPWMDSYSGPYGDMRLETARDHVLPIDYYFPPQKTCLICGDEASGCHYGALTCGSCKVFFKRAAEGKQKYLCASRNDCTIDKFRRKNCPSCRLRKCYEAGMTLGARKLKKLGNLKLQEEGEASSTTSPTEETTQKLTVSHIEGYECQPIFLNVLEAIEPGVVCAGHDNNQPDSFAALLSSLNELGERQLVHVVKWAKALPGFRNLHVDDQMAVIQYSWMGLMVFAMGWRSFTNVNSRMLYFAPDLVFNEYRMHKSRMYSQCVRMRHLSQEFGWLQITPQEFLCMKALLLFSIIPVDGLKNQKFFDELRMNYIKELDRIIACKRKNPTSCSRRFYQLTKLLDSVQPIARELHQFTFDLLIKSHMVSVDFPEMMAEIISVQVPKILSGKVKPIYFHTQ
# Description: as §1
structure (smiles),measurement,setting,value
C[C@H]1CC2(CCN(c3ccc(N4CCN(CC5CN(c6ccc7c(c6)C(=O)N(C6CCC(=O)NC6=O)C7=O)C5)CC4)cc3F)CC2)CN1c1ccc(C#N)c(Cl)c1 (stereo partly shown) [compound 37],IC50,"[1]; Homo sapiens, VCaP",< 10 nM
same,IC50,"[2]; Homo sapiens, LNCaP",< 10 nM
same,DC50,[3],< 1 nM
same,Dmax,[3],> 90%
C=C1CCC(N2C(=O)c3ccc(N4CCC(CN5CCN(c6ccc(N7CCC8(CC7)C[C@H](C)N(c7ccc(C#N)c(Cl)c7)C8)c(F)c6)CC5)CC4)cc3C2=O)C(=O)N1 (stereo partly shown) [compound 38],IC50,"[1]; Homo sapiens, VCaP",< 10 nM
same,IC50,"[2]; Homo sapiens, LNCaP",< 10 nM
same,Dmax,[3],> 90%
C[C@H]1CC2(CCN(c3ccc(N4CCN(C5CN(c6ccc7c(c6)C(=O)N(C6CCC(=O)NC6=O)C7=O)C5)CC4)cc3F)CC2)CN1c1ccc(C#N)c(Cl)c1 (stereo partly shown) [compound 39],IC50,"[1]; Homo sapiens, VCaP",< 10 nM
same,IC50,"[2]; Homo sapiens, LNCaP",< 10 nM
same,DC50,[3],< 1 nM
same,Dmax,[3],> 90%
C[C@H]1CC2(CCN(c3ccc(CN4CCN(C5CN(c6ccc7c(c6)C(=O)N(C6CCC(=O)NC6=O)C7=O)C5)CC4)c(F)c3)CC2)CN1c1ccc(C#N)c(Cl)c1 (stereo partly shown) [compound 40],IC50,[1],< 100 nM
same,IC50,[2],< 100 nM
same,DC50,[3],< 10 nM
same,Degradation of AR in VCaP cells Dmax,[3],A (A = >90%)
C[C@H]1CC2(CCN(c3ccc(CN4CCC(C5CN(c6ccc7c(c6)C(=O)N(C6CCC(=O)NC6=O)C7=O)C5)CC4)c(F)c3)CC2)CN1c1ccc(C#N)c(Cl)c1 (stereo partly shown) [compound 41],IC50,[1],< 100 nM
same,IC50,[2],< 100 nM
same,DC50,[3],< 10 nM
same,Degradation of AR in VCaP cells Dmax,[3],A (A = >90%)
C[C@H]1CC2(CCN(c3ccc(CN4CCN(C5CCN(c6ccc7c(c6)C(=O)N(C6CCC(=O)NC6=O)C7=O)CC5)CC4)c(F)c3)CC2)CN1c1ccc(C#N)c(Cl)c1 (stereo partly shown) [compound 42],IC50,[1],< 100 nM
same,IC50,[2],< 100 nM
same,DC50,[3],< 10 nM
same,Degradation of AR in VCaP cells Dmax,[3],A (A = >90%)
C[C@H]1CC2(CCN(c3ccc(C4CCN(CC5CN(c6ccc7c(c6)C(=O)N(C6CCC(=O)NC6=O)C7=O)C5)CC4)cn3)CC2)CN1c1ccc(C#N)c(Cl)c1 (stereo partly shown) [compound 43],IC50,"[1]; Homo sapiens, VCaP",< 10 nM
same,IC50,"[2]; Homo sapiens, LNCaP",< 10 nM
same,DC50,[3],< 1 nM
same,Dmax,[3],> 90%
C[C@H]1CC2(CCN(c3ccc(C4CCN(CC5CCN(c6ccc7c(c6)C(=O)N(C6CCC(=O)NC6=O)C7=O)CC5)CC4)cn3)CC2)CN1c1ccc(C#N)c(Cl)c1 (stereo partly shown) [compound 44],IC50,"[1]; Homo sapiens, VCaP",< 10 nM
same,IC50,"[2]; Homo sapiens, LNCaP",< 10 nM
same,DC50,[3],< 1 nM
same,Dmax,[3],> 90%
C[C@H]1CC2(CCN(c3ccc(C4CCN(CC5CN(c6ccc7c(c6)C(=O)N(C6CCC(=O)NC6=O)C7=O)C5)CC4)nc3)CC2)CN1c1ccc(C#N)c(Cl)c1 (stereo partly shown) [compound 45],IC50,"[1]; Homo sapiens, VCaP",< 10 nM
same,IC50,"[2]; Homo sapiens, LNCaP",< 10 nM
same,DC50,[3],< 1 nM
same,Dmax,[3],> 90%
C[C@H]1CC2(CCN(c3ccc(N4CCN(CC5CN(c6ccc7c(c6)C(=O)N(C6CCC(=O)NC6=O)C7=O)C5)CC4)nn3)CC2)CN1c1ccc(C#N)c(Cl)c1 (stereo partly shown) [compound 47],IC50,"[1]; Homo sapiens, VCaP",< 10 nM
same,IC50,"[2]; Homo sapiens, LNCaP",< 10 nM
same,DC50,[3],< 1 nM
same,Dmax,[3],> 90%
C[C@H]1CC2(CCN(c3ccc(N4CCN(CC5CCN(c6ccc7c(c6)C(=O)N(C6CCC(=O)NC6=O)C7=O)CC5)CC4)nn3)CC2)CN1c1ccc(C#N)c(Cl)c1 (stereo partly shown) [compound 48],IC50,"[1]; Homo sapiens, VCaP",< 10 nM
same,IC50,"[2]; Homo sapiens, LNCaP",< 10 nM
same,DC50,[3],< 1 nM
same,Dmax,[3],> 90%
C[C@H]1CC2(CCN(c3cnc(N4CCN(CC5CN(c6ccc7c(c6)C(=O)N(C6CCC(=O)NC6=O)C7=O)C5)CC4)cn3)CC2)CN1c1ccc(C#N)c(Cl)c1 (stereo partly shown) [compound 49],IC50,"[1]; Homo sapiens, VCaP",< 10 nM
same,IC50,"[2]; Homo sapiens, LNCaP",< 10 nM
same,DC50,[3],< 1 nM
same,Dmax,[3],> 90%
C[C@H]1CC2(CCN(c3cnc(N4CCN(CC5CCN(c6ccc7c(c6)C(=O)N(C6CCC(=O)NC6=O)C7=O)CC5)CC4)cn3)CC2)CN1c1ccc(C#N)c(Cl)c1 (stereo partly shown) [compound 50],IC50,"[1]; Homo sapiens, VCaP",< 100 nM
same,IC50,"[2]; Homo sapiens, LNCaP",< 100 nM
same,DC50,[3],< 10 nM
same,Dmax,[3],> 90%
C[C@H]1CC2(CCN(c3ccc(N4CCC(CN5CCN(c6ccc7c(c6)C(=O)N(C6CCC(=O)NC6=O)C7=O)CC5)CC4)cn3)CC2)CN1c1ccc(C#N)c(Cl)c1 (stereo partly shown) [compound 51],IC50,"[1]; Homo sapiens, VCaP",< 100 nM
same,IC50,"[2]; Homo sapiens, LNCaP",< 100 nM
same,DC50,[3],< 10 nM
same,Dmax,[3],> 90%
C[C@H]1CC2(CCN(c3ccc(N4CCC(CN5Cc6cc7c(cc6C5)C(=O)N(C5CCC(=O)NC5=O)C7=O)CC4)cn3)CC2)CN1c1ccc(C#N)c(Cl)c1 (stereo partly shown) [compound 52],IC50,"[1]; Homo sapiens, VCaP",< 100 nM
same,IC50,"[2]; Homo sapiens, LNCaP",< 100 nM
same,DC50,[3],< 10 nM
same,Dmax,[3],> 90%
C[C@H]1CC2(CCN(c3ccc(N4CCC(CN5CCN(c6ccc7c(c6)C(=O)N(C6CCC(=O)NC6=O)C7=O)CC5)CC4)nc3)CC2)CN1c1ccc(C#N)c(Cl)c1 (stereo partly shown) [compound 53],IC50,"[1]; Homo sapiens, VCaP",< 100 nM
same,IC50,"[2]; Homo sapiens, LNCaP",< 100 nM
same,DC50,[3],< 10 nM
same,Dmax,[3],> 90%
C[C@H]1CC2(CCN(c3ccc(N4CCC(CN5Cc6cc7c(cc6C5)C(=O)N(C5CCC(=O)NC5=O)C7=O)CC4)nc3)CC2)CN1c1ccc(C#N)c(Cl)c1 (stereo partly shown) [compound 54],IC50,"[1]; Homo sapiens, VCaP",< 100 nM
same,IC50,"[2]; Homo sapiens, LNCaP",< 100 nM
same,DC50,[3],< 10 nM
same,Dmax,[3],> 90%
C[C@H]1CC2(CCN(c3ccc(N4CCC(CN5CCN(c6ccc7c(c6)C(=O)N(C6CCC(=O)NC6=O)C7=O)CC5)CC4)nn3)CC2)CN1c1ccc(C#N)c(Cl)c1 (stereo partly shown) [compound 55],IC50,"[1]; Homo sapiens, VCaP",< 100 nM
same,IC50,"[2]; Homo sapiens, LNCaP",< 100 nM
same,DC50,[3],< 10 nM
same,Dmax,[3],> 90%
C[C@H]1CC2(CCN(c3ccc(N4CCC(CN5Cc6cc7c(cc6C5)C(=O)N(C5CCC(=O)NC5=O)C7=O)CC4)nn3)CC2)CN1c1ccc(C#N)c(Cl)c1 (stereo partly shown) [compound 56],IC50,"[1]; Homo sapiens, VCaP",< 100 nM
same,IC50,"[2]; Homo sapiens, LNCaP",< 100 nM
same,DC50,[3],< 10 nM
same,Dmax,[3],> 90%
C[C@H]1CC2(CCN(c3ccc(OC4CCN(C5CN(c6ccc7c(c6)C(=O)N(C6CCC(=O)NC6=O)C7=O)C5)CC4)cc3)CC2)CN1c1ccc(C#N)c(Cl)c1 (stereo partly shown) [compound 57],IC50,"[1]; Homo sapiens, VCaP",< 10 nM
same,IC50,"[2]; Homo sapiens, LNCaP",< 10 nM
same,DC50,[3],< 1 nM
same,Dmax,[3],> 90%
C[C@H]1CC2(CCN(c3ccc(OC4CCN(C5CCN(c6ccc7c(c6)C(=O)N(C6CCC(=O)NC6=O)C7=O)CC5)CC4)cc3)CC2)CN1c1ccc(C#N)c(Cl)c1 (stereo partly shown) [compound 58],IC50,"[1]; Homo sapiens, VCaP",< 100 nM
same,IC50,"[2]; Homo sapiens, LNCaP",< 100 nM
same,DC50,[3],< 10 nM
same,Dmax,[3],> 90%
C[C@H]1CC2(CCN(c3ccc(OC4CN(C5CN(c6ccc7c(c6)C(=O)N(C6CCC(=O)NC6=O)C7=O)C5)C4)cc3)CC2)CN1c1ccc(C#N)c(Cl)c1 (stereo partly shown) [compound 59],IC50,"[1]; Homo sapiens, VCaP",< 10 nM
same,IC50,"[2]; Homo sapiens, LNCaP",< 10 nM
same,DC50,[3],< 1 nM
same,Dmax,[3],> 90%
C[C@H]1CC2(CCN(c3ccc(OC4CN(C5CCN(c6ccc7c(c6)C(=O)N(C6CCC(=O)NC6=O)C7=O)CC5)C4)cc3)CC2)CN1c1ccc(C#N)c(Cl)c1 (stereo partly shown) [compound 60],IC50,"[1]; Homo sapiens, VCaP",< 10 nM
same,IC50,"[2]; Homo sapiens, LNCaP",< 10 nM
same,DC50,[3],< 1 nM
same,Dmax,[3],> 90%
"C[C@H]1CC2(CCN(c3ccc(OC4CCN(C5CN(c6ccc7c(c6)C(=O)N(C6CCC(=O)NC6=O)C7=O)C5)CC4)cn3)CC2)CN1c1ccc(C#N)c(Cl)c1 (stereo partly drawn) [compound 61, 2-chloro-4-((3S)-8-(5-((1-(1-(2-(2,6-dioxopiperidin-3-yl)-1,3-dioxoisoindolin-5-yl)azetidin-3-yl)piperidin-4-yl)oxy)pyridin-2-yl)-3-methyl-2,8-diazaspiro-[4.5]decan-2-yl)benzonitrile]",IC50,"[1]; Homo sapiens, VCaP",< 10 nM
same,IC50,"[2]; Homo sapiens, LNCaP",< 10 nM
same,Dmax,[3],> 90%

# — patent publication US20240190874A1, “SMALL MOLECULE DEGRADERS OF ANDROGEN RECEPTOR” (THE REGENTS OF THE UNIVERSITY OF MICHIGAN, priority 2021, published 2024)
